Assay results from patent US11001802B2, “Surface of a vessel with polystyrene, nitrogen, oxygen and a static sessile contact angle for attachment and cultivation of cells” (Nunc A/S, priority 2008, dated 2021).

How the values were obtained:
human ES cell line H9 [1] = test: Adhesion and growth of H9 cells passaged as single cells on surface modified plates (Examples 6, 8); assay type: cell-based
Description: Human ES cells of the cell line H9 were grown as single cells according to the methods disclosed in US patent Application LFS5163USPSP, assigned to LifeScan Inc. Cells were passaged by treatment with TrypLE™ Express for five minutes at 37° C., and seeded at 10,000 cells/cm^2 substrate surface.
Initial passaging of H9 human ES cells onto surface modified plates. Adhesion is improved with continuous 10 μM of Y-27632. This is true for the four surface modified plates tested: 2, 3, 4 and 13.
The role of Y-27632 in human ES cell adhesion and cell growth was studied in relation to the surface modified plates. H9 human ES cells were passaged 38 times with collagenase and 50 times with TrypLE™ Express followed by seeding onto Surfaces modified plates 3 or 4 (naïve cells). Alternatively H9 human ES cells passaged 38 times with collagenase and 38 times with Triple Express followed by 9 passages on surface modified plate 3 (Surface 3, acclimated cells), or surface modified plate 4 (Surface 4, acclimated cells). Cells were seeded at a density of 10^4/cm^2 in MEF conditioned media and grown for two days with or without the presence of 10 μM of Y-27632. […] Surface modified plate 4 improved attachment and/or growth of acclimated human ES cells. The cells were followed for a total of 4 days (FIGS. 19 and 20).

human ES cell line H9 [2] = test: Attachment and colony formation of H9 human ES cells on surface modified plates with Rho kinase inhibitors (crystal violet, image analysis); assay type: cell-based
Description: Human ES cells of the line H9, at passage 40 were maintained in MEF conditioned media on Nunclon Delta™ plates treated with a 1:30 dilution of growth factor reduced Matrigel™, prior to study. Cells were dissociated from the surface for passage by 1 mg/ml collagenase dissociation or by manual scraping.
These cells were then seeded onto surface modified plates 2, 3, 4 and 13 (12-well format) in the presence of increasing amounts one of the following Rho Kinase inhibitors: Y-27632 (from Sigma, St. Louis, Mo. or EMD, San Diego, Calif.), Fasudil (Sigma), or Hydroxyfasudil (Sigma), and maintained for 3 days, each day replacing the media and compound. At the end of day three, media was removed and the plates were stained with Crystal Violet (0.5% in water) to visualize colonies.
It was attempted to determine the optimal dose of Y-27632 to promote cell binding, by treating cells with a range of plating concentrations of Y-27632 for the first day of culture. After the first day in culture cells were treated on subsequent days with a 10 μM concentration of Y-27632. It was observed that the maximal concentration to stimulate attachment and growth of ES cells was 10 μM (FIG. 12) and that this occurred on surface modified plates 2, 3, 4, 13 and CellBIND™ (Corning, Corning, N.Y.).
The effect of treating the cells continuously with a single dose of Y-27632 on attachment and growth was also tested. The cells were dosed with 0, 1, 4, or 10 μM Y-27632 for 4 days. Some binding was observed on surface modified plates without treatment (0 μM), however the optimal concentration to stimulate attachment and growth of ES cells was 10 μM Y-27632 (Table 4) on surface modified plates 2, 3, 4, 13.

HEK293 cells = test: HEK293 attachment and growth, culture confluence by IncuCyte Plus (Examples 20, 21); assay type: cell-based, human
Description: HEK293 cells were maintained in EMEM (Lonza) containing 10% FBS (Lonza). Cells were passaged at 70-80% confluence using Trypsin/EDTA for dissociation, and seeded at c 2.0×10^4 cells/cm^2 in 75-cm^2 flasks with Nunclon Delta™ surface (Thermo Fisher Scientific, Roskilde, Denmark).
EMEM (500 μl) supplemented with 10% FBS containing 1.0, 5.0, 10, 15 or 20 μM Y-27632 (Sigma Chemical Co.), or 0.4, 1.2, 1.6, 2.4 or 2.8 μM H-1152 (Calbiochem, EMD Chemicals Inc., Darmstadt, Germany) was dispensed in Multidish 24-well plates with either Surface 4 or a non-treated (but gamma irradiated; 25 kGy) polystyrene surface. Another 500 μl of EMEM supplemented with 10% FBS and containing HEK293 cells were added to the wells (2.0×10^4 cells/cm^2). The cultures were placed in an IncuCyte™ Plus (Essen Instruments, Michigan, USA) and incubated at 37° C. in a humidified atmosphere of 5% CO2 in air. The IncuCyte™ Plus is an automated imaging platform, configured to fit inside a CO2 incubator, and designed to provide kinetic, non-invasive live cell imaging by acquiring phase contrast images of the cells at user-defined times and locations within the cultures. The primary metric of the instrument is culture confluence, that is, the fraction of the surface that is covered by cells. The HEK293 cells were incubated for 72 hours without manipulations, and images were collected every two hours at 9 positions in triplicate cultures. Culture confluence was determined using the IncuCyte™ Plus software (v. 3.4.1.25966).
EMEM (1.0 ml) supplemented with 10% FBS containing 0.4, 0.8, 1.2, 1.6, 2.0, 2.4 or 2.8 μM H-1152 was dispensed in Multidish 12-well plates with Surface 4. Another 1.0 ml of EMEM supplemented with […] and containing HEK293 cells were added to the wells (4.0×10^4 cells/cm^2). The cultures were placed in an IncuCyte™ Plus, and incubated at 37° C. in a humidified atmosphere of 5% CO2 in air for 42 hours (images were collected every 6 hours). One ml of culture medium was then removed by pipetting, and 1.0 ml EMEM supplemented with 10% FBS containing 0.2, 0.4, 0.6, 0.8, 1.0, 1.2 and 1.4 μM H-1152 was added. The cultures were placed in the IncuCyte™ Plus again, and images were collected every hour over the following 25 hours. Images were collected at 9 positions in triplicate cultures, and culture confluence was determined using the IncuCyte™ Plus software. Images from the IncuCyte™ Plus collected at specific positions in HEK293 cell cultures grown in the absence or presence of H-1152 (0.6 μM) was retrieved and presented as phase-contrast micrographs for the comparison of HEK293 culture morphology at the following time points: start of incubation (0 hours), just before medium change (42 hours), 1 hour after the medium change (43 hours), and, finally, after 52 hours of incubation.

[3] = test system: dissociated human embryonic stem cells; details: from approximately 1%; Wanatabe et al.; cited from earlier work

C[C@@H](N)[C@H]1CC[C@H](C(=O)Nc2ccncc2)CC1 [Surface Y-27632, Y-27632]
attachment of naïve single cells (human ES cell line H9 [1]; 10 μM Y-27632, surface modified plates 3 and 4): improves attachment
attachment of acclimated single cells (human ES cell line H9 [1]; 10 μM Y-27632, surface modified plates 3 or 4): did not improve attachment
adhesion of H9 cells passaged with TrypLE Express (human ES cell line H9 [1]; continuous 10 μM Y-27632, surface modified plates 2, 3, 4 and 13): improved
attachment of ES cell colonies by day three (human ES cell line H9 [2]; H9 on surface modified plates 2, 3, 4 and 13, crystal violet, Y-27632 at 10 μM): Best results
cell proliferation (human ES cell line H9 [2]; Matrigel treated plates with or without 10 μM Y-27632 (FIG. 14)): grow at a similar density as untreated cells
optimal concentration to stimulate attachment and growth of ES cells (human ES cell line H9 [2]; continuous 0, 1, 4 or 10 μM for 4 days, plates 2, 3, 4, 13): 10 µM
maximal concentration to stimulate attachment and growth of ES cells (human ES cell line H9 [2]; range of plating concentrations first day, then 10 μM, plates 2, 3, 4, 13 and CellBIND): 10 µM
attachment and growth of HEK293 cells (HEK293 cells; Surface 4, increasing concentration): enhances attachment and growth
growth and attachment of HEK293 cells (HEK293 cells; non-treated polystyrene surface, 10 μM Y-27632, 0.6-1.2 μM H-1152): slightly enhanced
cloning efficiency [3]: approximately 27%
